The text below walks through data of patent publication US20240109865A1, “INDAZOLE COMPOUNDS AS KINASE INHIBITORS” (TYRA BIOSCIENCES, INC., priority 2020, published 2024).

Common to all, as to test: Kinase assay, binding constants (Kd), kinase-tagged T7 phage, qPCR
On the technique in general: Quantitative PCR measures a nucleic acid by following its amplification.

One assay concerns the target FGFR1 (Homo sapiens (Human), UniProt P11362). In outline: (§1)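 Kinase-tagged T7 phage (grown in BL21-derived E. coli) competed with test compound for immobilized biotinylated ligand on streptavidin beads. Kds came from an 11-point 3-fold dilution series at 0.9% final DMSO. Bound kinase was eluted with non-biotinylated ligand and quantified by qPCR, with Hill slope fixed at −1.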

The next assay deals with FGFR2 (Homo sapiens (Human), UniProt P21802). An outline of the steps:
as §1

A further assay concerns the target FGFR3 (Homo sapiens (Human), UniProt P22607). In outline:
as §1

Another assay deals with FGFR3 (V555M) (Homo sapiens (Human), UniProt P22607, V555M). As to conditions: V555M mutant. An outline of the steps: as §1
For the next assay, the target named is FGFR4 (Homo sapiens (Human), UniProt P22455). An outline of the steps:
as §1

As usually defined, the Kd is a measure of binding affinity in units of concentration.

FGFR4, sequence (P22455 22-802): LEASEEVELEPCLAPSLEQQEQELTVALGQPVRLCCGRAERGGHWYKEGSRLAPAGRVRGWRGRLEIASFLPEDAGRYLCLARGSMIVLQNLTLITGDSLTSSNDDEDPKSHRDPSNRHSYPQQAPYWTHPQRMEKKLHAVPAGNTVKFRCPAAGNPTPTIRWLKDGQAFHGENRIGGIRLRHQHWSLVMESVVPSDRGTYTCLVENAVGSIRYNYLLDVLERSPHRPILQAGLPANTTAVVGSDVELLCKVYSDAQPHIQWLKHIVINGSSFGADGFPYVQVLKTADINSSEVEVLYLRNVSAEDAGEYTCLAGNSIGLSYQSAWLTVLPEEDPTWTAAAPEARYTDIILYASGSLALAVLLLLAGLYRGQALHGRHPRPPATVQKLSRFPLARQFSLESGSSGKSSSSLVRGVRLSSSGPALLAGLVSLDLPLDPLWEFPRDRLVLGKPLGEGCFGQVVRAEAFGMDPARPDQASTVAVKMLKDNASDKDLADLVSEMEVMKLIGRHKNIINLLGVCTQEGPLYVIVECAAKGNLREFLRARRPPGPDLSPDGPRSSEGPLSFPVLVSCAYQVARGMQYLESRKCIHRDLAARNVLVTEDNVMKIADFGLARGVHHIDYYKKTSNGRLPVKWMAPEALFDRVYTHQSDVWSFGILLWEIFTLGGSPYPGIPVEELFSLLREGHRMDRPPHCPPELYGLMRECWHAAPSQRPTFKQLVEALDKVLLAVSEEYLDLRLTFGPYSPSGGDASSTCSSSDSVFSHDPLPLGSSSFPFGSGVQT
FGFR2, sequence (P21802 22-821): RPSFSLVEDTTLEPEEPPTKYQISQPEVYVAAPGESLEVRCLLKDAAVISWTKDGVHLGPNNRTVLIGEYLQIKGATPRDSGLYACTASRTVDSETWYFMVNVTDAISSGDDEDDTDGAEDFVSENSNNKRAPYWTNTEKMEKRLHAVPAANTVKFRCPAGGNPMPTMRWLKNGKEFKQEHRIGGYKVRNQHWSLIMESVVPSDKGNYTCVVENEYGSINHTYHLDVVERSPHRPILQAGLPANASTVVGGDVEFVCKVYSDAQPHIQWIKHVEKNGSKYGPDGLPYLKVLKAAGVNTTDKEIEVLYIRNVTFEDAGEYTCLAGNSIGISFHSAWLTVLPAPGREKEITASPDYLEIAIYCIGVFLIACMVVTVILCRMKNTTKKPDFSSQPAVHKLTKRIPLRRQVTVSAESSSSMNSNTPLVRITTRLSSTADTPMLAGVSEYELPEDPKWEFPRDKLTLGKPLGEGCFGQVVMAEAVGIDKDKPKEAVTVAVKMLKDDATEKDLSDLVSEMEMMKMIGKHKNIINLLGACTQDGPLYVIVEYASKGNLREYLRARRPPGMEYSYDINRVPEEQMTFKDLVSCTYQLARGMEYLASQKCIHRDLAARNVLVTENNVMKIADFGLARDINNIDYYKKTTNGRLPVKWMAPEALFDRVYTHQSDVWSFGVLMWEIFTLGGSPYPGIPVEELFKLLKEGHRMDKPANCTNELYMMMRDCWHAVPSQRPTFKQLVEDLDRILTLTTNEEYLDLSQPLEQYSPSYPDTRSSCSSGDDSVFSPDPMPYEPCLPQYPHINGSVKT
FGFR3, sequence (P22607 23-806): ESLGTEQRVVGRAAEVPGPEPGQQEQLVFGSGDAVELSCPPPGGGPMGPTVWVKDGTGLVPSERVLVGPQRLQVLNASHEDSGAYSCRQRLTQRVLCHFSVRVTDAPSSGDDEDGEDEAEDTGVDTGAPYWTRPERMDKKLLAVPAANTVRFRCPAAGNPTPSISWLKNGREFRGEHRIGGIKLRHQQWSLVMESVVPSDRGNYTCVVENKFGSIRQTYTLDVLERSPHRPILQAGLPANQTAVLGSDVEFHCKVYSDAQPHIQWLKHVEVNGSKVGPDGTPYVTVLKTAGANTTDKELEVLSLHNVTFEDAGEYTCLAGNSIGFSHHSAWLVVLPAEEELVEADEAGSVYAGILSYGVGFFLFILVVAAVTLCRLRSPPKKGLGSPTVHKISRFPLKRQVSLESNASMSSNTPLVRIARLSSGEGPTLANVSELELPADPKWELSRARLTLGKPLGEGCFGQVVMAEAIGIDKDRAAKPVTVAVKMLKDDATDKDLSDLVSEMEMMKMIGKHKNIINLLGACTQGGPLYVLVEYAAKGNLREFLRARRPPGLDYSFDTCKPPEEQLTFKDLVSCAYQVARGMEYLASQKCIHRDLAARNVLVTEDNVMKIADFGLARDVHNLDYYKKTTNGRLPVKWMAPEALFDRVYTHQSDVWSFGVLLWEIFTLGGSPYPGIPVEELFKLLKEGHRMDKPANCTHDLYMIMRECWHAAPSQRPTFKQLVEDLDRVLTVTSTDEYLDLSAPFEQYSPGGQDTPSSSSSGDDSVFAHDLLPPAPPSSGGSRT
FGFR1, sequence (P11362 22-822): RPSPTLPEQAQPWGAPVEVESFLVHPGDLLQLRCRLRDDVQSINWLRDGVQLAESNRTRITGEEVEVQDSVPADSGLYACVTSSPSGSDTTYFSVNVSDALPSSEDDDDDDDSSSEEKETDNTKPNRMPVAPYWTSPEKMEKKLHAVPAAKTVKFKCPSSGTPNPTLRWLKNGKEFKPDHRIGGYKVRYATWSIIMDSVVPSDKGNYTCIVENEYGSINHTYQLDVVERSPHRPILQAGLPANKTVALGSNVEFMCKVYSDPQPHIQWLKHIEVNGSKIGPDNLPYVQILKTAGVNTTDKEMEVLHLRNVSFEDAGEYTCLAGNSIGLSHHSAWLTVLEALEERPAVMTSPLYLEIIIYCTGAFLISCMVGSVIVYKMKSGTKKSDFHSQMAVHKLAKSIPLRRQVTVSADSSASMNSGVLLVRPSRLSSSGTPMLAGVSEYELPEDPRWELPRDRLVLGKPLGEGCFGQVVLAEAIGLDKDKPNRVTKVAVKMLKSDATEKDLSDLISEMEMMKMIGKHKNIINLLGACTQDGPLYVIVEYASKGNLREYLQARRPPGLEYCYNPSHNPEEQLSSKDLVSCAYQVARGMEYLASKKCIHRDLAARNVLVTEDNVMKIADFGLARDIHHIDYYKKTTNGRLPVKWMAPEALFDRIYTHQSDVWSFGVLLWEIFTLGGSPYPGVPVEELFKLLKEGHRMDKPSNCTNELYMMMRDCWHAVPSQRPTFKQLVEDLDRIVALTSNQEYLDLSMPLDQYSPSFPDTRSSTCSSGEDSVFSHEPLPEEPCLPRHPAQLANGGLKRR
FGFR3 (V555M), sequence (P22607 23-806 V555M): as the sequence (P22607 23-806) above, with V533M counted along it

In the case of `C[C@@H](Oc1ccc2[nH]nc(-c3cnc(N4CC[C@H](O)C4)c(C#N)c3)c2c1)c1c(Cl)cnc(F)c1Cl` [Example 288, 5-(5-((R)-1-(3,5-dichloro-2-fluoropyridin-4-yl)ethoxy)-1H-indazol-3-yl)-2-((S)-3-hydroxypyrrolidin-1-yl)nicotinonitrile], the Kd on FGFR1 is over 300 nM; at FGFR2 it was over 300 nM; at FGFR3, 20 to 100 nM; on FGFR3 (V555M), 20 to 100 nM; on FGFR4, 1 to 20 nM.

For `C[C@H](Oc1ccc2[nH]nc(-c3cnc(N4CC(O)C4)c(C#N)c3)c2c1)c1c(Cl)cnc(F)c1Cl` [Example 291, (S)-5-(5-(1-(3,5-dichloro-2-fluoropyridin-4-yl)ethoxy)-1H-indazol-3-yl)-2-(3-hydroxyazetidin-1-yl)nicotinonitrile], the Kd at FGFR1, on FGFR2, on FGFR3, at FGFR3 (V555M) and at FGFR4 was over 300 nM in each case.

Consider `C[C@@H](Oc1ccc2[nH]nc(-c3cnc(N4CCCC4)c(C#N)c3)c2c1)c1c(Cl)cnc(F)c1Cl` [Example 292, (R)-5-(5-(1-(3,5-dichloro-2-fluoropyridin-4-yl)ethoxy)-1H-indazol-3-yl)-2-(pyrrolidin-1-yl)nicotinonitrile], for which the Kd at FGFR1 was over 300 nM; on FGFR2 it was over 300 nM; at FGFR3 it was over 300 nM; at FGFR3 (V555M), over 300 nM; on FGFR4, 100 to 300 nM.

Consider `C[C@@H](Oc1ccc2[nH]nc(-c3cnc(N4CC[C@H](O)C4)c(C#N)c3)c2c1)c1c(Cl)cncc1Cl` [Example 293, 5-[5-[(1R)-1-(3,5-dichloro-4-pyridyl)ethoxy]-1H-indazol-3-yl]-2-[(3S)-3-hydroxypyrrolidin-1-yl]pyridine-3-carbonitrile], for which the Kd at FGFR1 lay in the range of 20 to 100 nM; on FGFR2, 20 to 100 nM; on FGFR3 it was 1 to 20 nM; on FGFR3 (V555M) it was 1 to 20 nM; at FGFR4, 1 to 20 nM.

As to `C[C@@H](Oc1ccc2[nH]nc(-c3cnc(N4CC[C@@H](C(C)(C)O)C4)c(C#N)c3)c2c1)c1c(Cl)cncc1Cl` [Example 294, 5-[5-[(1R)-1-(3,5-dichloro-4-pyridyl)ethoxy]-1H-indazol-3-yl]-2-[(3R)-3-(1-hydroxy-1-methyl-ethyl)pyrrolidin-1-yl]pyridine-3-carbonitrile], the Kd was over 300 nM on FGFR1; over 300 nM on FGFR2; 100 to 300 nM on FGFR3; 20 to 100 nM on FGFR3 (V555M); 20 to 100 nM on FGFR4.

In the case of `Cc1ncc(Cl)c([C@@H](C)Oc2ccc3[nH]nc(-c4cnc(N5CC(CC(F)(F)F)C5)c(C#N)c4)c3c2)c1Cl` [Example 295, 5-[5-[(1R)-1-(3,5-dichloro-2-methyl-4-pyridyl)ethoxy]-1H-indazol-3-yl]-2-[3-(2,2,2-trifluoroethyl)azetidin-1-yl]pyridine-3-carbonitrile], the dissociation constant (Kd) is over 300 nM at FGFR1; over 300 nM on FGFR2; over 300 nM at FGFR3; 100 to 300 nM on FGFR3 (V555M); 20 to 100 nM on FGFR4.

For `C[C@@H](Oc1ccc2[nH]nc(-c3cnc(N4CC(CC(F)(F)F)C4)c(C#N)c3)c2c1)c1c(Cl)cncc1Cl` [Example 296, 5-[5-[(1R)-1-(3,5-dichloro-4-pyridyl)ethoxy]-1H-indazol-3-yl]-2-[3-(2,2,2-trifluoroethyl)azetidin-1-yl]pyridine-3-carbonitrile], the dissociation constant (Kd) on FGFR1 is over 300 nM; on FGFR2 it was over 300 nM; on FGFR3, over 300 nM; on FGFR3 (V555M), 100 to 300 nM; at FGFR4 it was 20 to 100 nM.

As to `C[C@@H](Oc1ccc2[nH]nc(-c3cnc(N4CC[C@@H](O)C4)c(C#N)c3)c2c1)c1c(Cl)cncc1Cl` [Example 297, 5-[5-[(1R)-1-(3,5-dichloro-4-pyridyl)ethoxy]-1H-indazol-3-yl]-2-[(3R)-3-hydroxypyrrolidin-1-yl]pyridine-3-carbonitrile], the dissociation constant Kd is 20 to 100 nM on FGFR1; 100 to 300 nM on FGFR2; 1 to 20 nM on FGFR3; 1 to 20 nM at FGFR3 (V555M); 1 to 20 nM at FGFR4.

As for `C[C@@H](Oc1ccc2[nH]nc(-c3cnc(N4CCC(O)CC4)c(C#N)c3)c2c1)c1c(Cl)cncc1Cl` [Example 298, 5-[5-[(1R)-1-(3,5-dichloro-4-pyridyl)ethoxy]-1H-indazol-3-yl]-2-(4-hydroxy-1-piperidyl)pyridine-3-carbonitrile], the Kd at FGFR1 was in the range of 20 to 100 nM; at FGFR2, 20 to 100 nM; on FGFR3, 1 to 20 nM; on FGFR3 (V555M) it was 1 to 20 nM; at FGFR4, 1 to 20 nM.

Take `Cc1cnnc(C)c1[C@@H](C)Oc1ccc2[nH]nc(-c3cnc(N4CC5CC(C4)N5)c(C#N)c3)c2c1` [Example 299, 2-(3,6-diazabicyclo[3.1.1]heptan-3-yl)-5-(5-((R)-1-(3,5-dimethylpyridazin-4-yl)ethoxy)-1H-indazol-3-yl)nicotinonitrile]: the Kd at FGFR1 is 20 to 100 nM; at FGFR2, 20 to 100 nM; on FGFR3, 1 to 20 nM; at FGFR3 (V555M), 1 to 20 nM; at FGFR4 it was 1 to 20 nM.

As for `COc1cc(-c2n[nH]c3ccc(O[C@H](C)c4c(C)cnnc4C)cc23)cnc1N1CC2CC(C1)N2` [Example 300, 3-(5-(5-((R)-1-(3,5-dimethylpyridazin-4-yl)ethoxy)-1H-indazol-3-yl)-3-methoxypyridin-2-yl)-3,6-diazabicyclo[3.1.1]heptane], the Kd on FGFR1 was 100 to 300 nM; on FGFR2 it was 100 to 300 nM; on FGFR3, 20 to 100 nM; at FGFR3 (V555M), 20 to 100 nM; on FGFR4, 20 to 100 nM.

As for `Cc1cnnc(C)c1[C@@H](C)Oc1ccc2[nH]nc(-c3cnc(N4CC[C@H](C(C)(C)O)C4)c(C#N)c3)c2c1` [Example 301, 5-(5-((R)-1-(3,5-dimethylpyridazin-4-yl)ethoxy)-1H-indazol-3-yl)-2-((S)-3-(2-hydroxypropan-2-yl)pyrrolidin-1-yl)nicotinonitrile], the Kd on FGFR1 lay within 100 to 300 nM; on FGFR2, 100 to 300 nM; on FGFR3 it was 20 to 100 nM; at FGFR3 (V555M), 1 to 20 nM; at FGFR4, 1 to 20 nM.

In the case of `C[C@@H](Oc1ccc2[nH]nc(-c3cnc(N4CC(O)C4)c(C#N)c3)c2c1)c1c(Cl)cncc1Cl` [Example 302, 5-[5-[(1R)-1-(3,5-dichloro-4-pyridyl)ethoxy]-1H-indazol-3-yl]-2-(3-hydroxyazetidin-1-yl)pyridine-3-carbonitrile], the Kd is 100 to 300 nM on FGFR1; 100 to 300 nM at FGFR2; 20 to 100 nM on FGFR3; 1 to 20 nM on FGFR3 (V555M); 1 to 20 nM at FGFR4.

With `C[C@@H](Oc1ccc2[nH]nc(-c3cnc(N4CCC(C(C)(C)O)CC4)c(C#N)c3)c2c1)c1c(Cl)cncc1Cl` [Example 303, 5-[5-[(1R)-1-(3,5-dichloro-4-pyridyl)ethoxy]-1H-indazol-3-yl]-2-[4-(1-hydroxy-1-methyl-ethyl)-1-piperidyl]pyridine-3-carbonitrile], the Kd on FGFR1 was 20 to 100 nM; at FGFR2, 20 to 100 nM; on FGFR3, 1 to 20 nM; on FGFR3 (V555M), 1 to 20 nM; on FGFR4, 1 to 20 nM.

Turning to `COc1cc(-c2n[nH]c3ccc(O[C@H](C)c4c(C)cnnc4C)cc23)cnc1N1CCC1` [Example 304, (R)-3-(6-(azetidin-1-yl)-5-methoxypyridin-3-yl)-5-(1-(3,5-dimethylpyridazin-4-yl)ethoxy)-1H-indazole], the Kd on FGFR1 is over 300 nM; on FGFR2, over 300 nM; at FGFR3, 100 to 300 nM; on FGFR3 (V555M), 20 to 100 nM; at FGFR4, 1 to 20 nM.

On to `COc1cc(-c2n[nH]c3ccc(O[C@H](C)c4c(C)cnnc4C)cc23)cnc1N1CCCC1` [Example 305, (R)-5-(1-(3,5-dimethylpyridazin-4-yl)ethoxy)-3-(5-methoxy-6-(pyrrolidin-1-yl)pyridin-3-yl)-1H-indazole], for which the dissociation constant Kd is over 300 nM at FGFR1; over 300 nM at FGFR2; over 300 nM on FGFR3; 100 to 300 nM on FGFR3 (V555M); 20 to 100 nM on FGFR4.

For the compound `Cc1cnnc(C)c1[C@@H](C)Oc1ccc2[nH]nc(-c3cnc(N4CC[C@H](O)C4)c(C#N)c3)c2c1` [Example 306, 5-(5-((R)-1-(3,5-dimethylpyridazin-4-yl)ethoxy)-1H-indazol-3-yl)-2-((S)-3-hydroxypyrrolidin-1-yl)nicotinonitrile], the Kd on FGFR1 fell in the range of 100 to 300 nM; at FGFR2, 20 to 100 nM; on FGFR3, 20 to 100 nM; at FGFR3 (V555M) it was 1 to 20 nM; on FGFR4 it was 1 to 20 nM.

Regarding `Cc1cnnc(C)c1[C@@H](C)Oc1ccc2[nH]nc(-c3cnc(N4CC[C@@H](C(C)(C)O)C4)c(C#N)c3)c2c1` [Example 307, 5-(5-((R)-1-(3,5-dimethylpyridazin-4-yl)ethoxy)-1H-indazol-3-yl)-2-((R)-3-(2-hydroxypropan-2-yl)pyrrolidin-1-yl)nicotinonitrile], the dissociation constant Kd was in the range of 100 to 300 nM at FGFR1; 20 to 100 nM at FGFR2; 20 to 100 nM at FGFR3; 1 to 20 nM on FGFR3 (V555M); 1 to 20 nM at FGFR4.

In the case of `Cc1ncc(Cl)c([C@@H](C)Oc2ccc3[nH]nc(-c4cnc(N5CC(O)C5)c(C#N)c4)c3c2)c1Cl` [Example 308, 5-[5-[(1R)-1-(3,5-dichloro-2-methyl-4-pyridyl)ethoxy]-1H-indazol-3-yl]-2-(3-hydroxyazetidin-1-yl)pyridine-3-carbonitrile], the Kd is over 300 nM on FGFR1; over 300 nM on FGFR2; 100 to 300 nM on FGFR3; 20 to 100 nM at FGFR3 (V555M); 1 to 20 nM on FGFR4.
